Assay results as given in US20250154169A1, “COMPOUNDS AND METHODS FOR MODULATING SPLICING” (REMIX THERAPEUTICS INC., priority 2021, published 2025).

Tests used:
HTT mRNA = experiment: Splicing RT-qPCR assay, HTT canonical (CJ) and alternative (AJ) junction mRNA; assay type: cell-based, human; settings: Homo sapiens, A673 or K562 cells, 24 hours compound treatment; for IC50: 24 h, read-out: HTT CJ (IC50, decrease in canonical junction mRNA); for AC50: read-out: HTT AJ (AC50, increase in alternative junction mRNA)
In short: (§1)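 Canonical (CJ) and alternative-exon (AJ) junction mRNAs quantified by one-step RT-qPCR in cell lysates, normalized to housekeeping PPIA for A673 and GAPDH or GUSB for K562. Cells were exposed 24 h at 37 °C to 11-point 3-fold compound series from 10 uM final, with DMSO at or below 0.25%.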

MYB mRNA = experiment: Splicing RT-qPCR assay, MYB canonical (CJ) and alternative (AJ) junction mRNA; assay type: cell-based, human; settings: Homo sapiens, 24 h, A673 or K562 cells, 24 hours compound treatment, RT-qPCR; for AC50: read-out: MYB AJ (AC50, increase in alternative junction mRNA); for IC50: read-out: MYB CJ (IC50, decrease in canonical junction mRNA)
In short: as §1

Compound `Cc1cn2cc(NC(=O)c3ccc(N4CC[C@H](NC5CC(O)C5)C4)c4cn(C)nc34)cc(F)c2n1` (stereo partly shown) [Compound 603] has an IC50 (HTT mRNA) of over 10000 nM, an AC50 (HTT mRNA) of over 10000 nM and an AC50 (MYB mRNA) of over 10000 nM. The IC50 (MYB mRNA) was 1000 to 10000 nM.
Compound `Cn1cc2c(N3CCNCC3)ccc(C(=O)Nc3ccc4c(c3)oc(=O)n4C)c2n1` [Compound 499, 2-methyl-N-(3-methyl-2-oxo-2,3-dihydrobenzo[d]oxazol-6-yl)-4-(piperazin-1-yl)-2H-indazole-7-carboxamide] has an IC50 (HTT mRNA) of over 10000 nM, an AC50 (HTT mRNA) of over 10000 nM and an AC50 (MYB mRNA) of over 10000 nM. The IC50 (MYB mRNA) was over 10000 nM.
Work on `CCn1cc2c(N3CCC(NC4C5COCC54)CC3)ccc(C(=O)Nc3cc(F)c4nc(C)cn4c3)c2n1` (stereo not shown) [Compound 581, 2-ethyl-N-{8-fluoro-2-methylimidazo[1,2-a]pyridin-6-yl}-4-(4-{3-oxabicyclo[3.1.0]hexan-6-ylamino}piperidin-1-yl) indazole-7-carboxamide] yielded an IC50 (HTT mRNA) of 1000 to 10000 nM, an AC50 (HTT mRNA) of 1000 to 10000 nM and an AC50 (MYB mRNA) of 100 to 1000 nM. It also gave an IC50 (MYB mRNA) of 100 to 1000 nM.
`CCn1cc2c(C3CCNC3)ccc(C(=O)Nc3cc(F)c4nccn4c3)c2n1` (stereo not shown) [Compound 526, 2-ethyl-N-{8-fluoroimidazo[1,2-a]pyridin-6-yl}-4-(pyrrolidin-3-yl) indazole-7-carboxamide] gave an IC50 (HTT mRNA) of over 10000 nM, an AC50 (HTT mRNA) of over 10000 nM and an AC50 (MYB mRNA) of 1000 to 10000 nM. It also gave an IC50 (MYB mRNA) of 1000 to 10000 nM.
Compound `CCn1cc2c(N3CCN4CCOC[C@@H]4C3)ccc(C(=O)Nc3cc(F)c4nc(C)cn4c3)c2n1` [Compound 538, 4-[(9aS)-hexahydro-1H-pyrazino[2,1-c][1,4]oxazin-8-yl]-2-ethyl-N-{8-fluoro-2-methylimidazo[1,2-a]pyridin-6-yl} indazole-7-carboxamide] has an IC50 (HTT mRNA) of 1000 to 10000 nM, an AC50 (HTT mRNA) of 1000 to 10000 nM and an AC50 (MYB mRNA) of 1000 to 10000 nM. The IC50 (MYB mRNA) was 1000 to 10000 nM.
Work on `CCn1cc2c(N3CCC(NC4CC4)C3)ccc(C(=O)Nc3cc(F)c4nc(C)cn4c3)c2n1` (stereo not shown) [Compound 398, 4-[3-(cyclopropylamino)pyrrolidin-1-yl]-2-ethyl-N-{8-fluoro-2-methylimidazo[1,2-a]pyridin-6-yl}indazole-7-carboxamide] yielded an IC50 (HTT mRNA) of over 10000 nM, an AC50 (HTT mRNA) of over 10000 nM and an AC50 (MYB mRNA) of 100 to 1000 nM. For the same compound, the IC50 (MYB mRNA) was 100 to 1000 nM.
In the case of `CNc1nc(NC(=O)c2ccc(N3CC[C@@H](NC)C3)c3cn(C)nc23)cn2cc(C)nc12` [Compound 631, 2-methyl-N-[2-methyl-8-(methylamino)imidazo[1,2-a]pyrazin-6-yl]-4-[(3R)-3-(methylamino)pyrrolidin-1-yl]indazole-7-carboxamide], the IC50 (HTT mRNA) is reported as over 10000 nM, the AC50 (HTT mRNA) is reported as over 10000 nM and the AC50 (MYB mRNA) is reported as 1000 to 10000 nM. The IC50 (MYB mRNA) was 1000 to 10000 nM.
Compound `CCn1cc2c(N3CCC(NCC(C)(C)O)CC3)ccc(C(=O)Nc3cc(F)c4nc(C)cn4c3)c2n1` [Compound 577, 2-ethyl-N-{8-fluoro-2-methylimidazo[1,2-a]pyridin-6-yl}-4-{4-[(2-hydroxy-2-methylpropyl)amino]piperidin-1-yl}indazole-7-carboxamide] has an IC50 (HTT mRNA) of 100 to 1000 nM, an AC50 (HTT mRNA) of 100 to 1000 nM and an AC50 (MYB mRNA) of 100 to 1000 nM. The IC50 (MYB mRNA) was 100 to 1000 nM.
Work on `CCn1cc2c(N3CC[C@@H](NC)C3)cc(O)c(C(=O)Nc3cc(F)c4nc(C)cn4c3)c2n1` [Compound 635] yielded an IC50 (HTT mRNA) of over 10000 nM, an AC50 (HTT mRNA) of over 10000 nM and an AC50 (MYB mRNA) of 1000 to 10000 nM. It also gave an IC50 (MYB mRNA) of 100 to 1000 nM.
`Cc1cn2cc(NC(=O)c3ccc(N4CC[C@@H](NC5CCC5)C4)c4cn(C)nc34)cc(F)c2n1` [Compound 533, (R)-4-(3-(cyclobutylamino)pyrrolidin-1-yl)-N-(8-fluoro-2-methylimidazo[1,2-a]pyridin-6-yl)-2-methyl-2H-indazole-7-carboxamide] gave an IC50 (HTT mRNA) of 1000 to 10000 nM, an AC50 (HTT mRNA) of 1000 to 10000 nM and an AC50 (MYB mRNA) of under 100 nM. It also gave an IC50 (MYB mRNA) of under 100 nM.
